Biological target: T1, MOR receptors (Homo sapiens, UniProt P35372)
T1 construct: expressed in transfected cells; host or cells: CHO cells
Experiment: cell-based
Type: cell-based
Settings: CHO cells stably expressing MOR/Gα16; calcium flux caused by known agonist DAMGO; fluorescence at 525 nm
From the text: A cell line co-transfected with MOR and Gα16 is established, such that activation of receptors can activate Ga16 protein, which in turn activates phospholipase C (PLC) to generate IP3 and DAG. IP3 can bind to IP3 receptors on endoplasmic reticulum and mitochondria in the cells, thereby triggering the release of intracellular calcium. Therefore, detection of intracellular calcium levels can be employed as a measure for detecting the activation state of MOR. Fluo-4/AM is a calcium fluorescent probe indicator for measuring calcium ions. It is a non-polar liposoluble compound, which, upon entering a cell and by the action of lipolytic enzymes, releases Fluo-4 while the AM moiety is dissociated. As a polar molecule, Fluo-4 cannot easily pass through the lipid bilayer membrane, thus it is retained in the cells for a long duration. Eventually, the level of activation of Gα proteins is reflected by measuring the intensity of fluorescence that is excited.
1. inoculating CHO cells stably expressing MOR/Gα16 in a 96-well plate and incubating the same overnight;
2. removing the medium from the wells inoculated with cells, adding freshly prepared dye (40 μl/well), and incubating for 40 minutes in a thermostatic incubator of 37° C.;
3. diluting the test substances with a calcium buffer and homogenizing; […]

T1 sequence (P35372 whole entry): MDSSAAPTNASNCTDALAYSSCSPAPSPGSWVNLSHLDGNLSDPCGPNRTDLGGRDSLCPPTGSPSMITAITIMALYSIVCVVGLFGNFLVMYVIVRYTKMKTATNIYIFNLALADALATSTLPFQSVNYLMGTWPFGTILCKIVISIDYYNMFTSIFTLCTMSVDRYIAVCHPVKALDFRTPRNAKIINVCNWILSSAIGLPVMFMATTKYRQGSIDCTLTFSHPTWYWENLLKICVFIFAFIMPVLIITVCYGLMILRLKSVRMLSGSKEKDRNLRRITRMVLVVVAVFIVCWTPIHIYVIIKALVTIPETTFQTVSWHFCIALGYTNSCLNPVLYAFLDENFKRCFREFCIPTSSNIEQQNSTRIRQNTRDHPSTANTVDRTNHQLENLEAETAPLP

SMILES	IC50 [nM]
C=CCN1CC[C@]23c4c5ccc(O)c4O[C@H]2[C@@H](OCCOCCOCCOCCO[C@H]2CC[C@@]4(O)[C@H]6Cc7ccc(O)c8c7[C@@]4(CCN6CC=C)[C@H]2O8)CC[C@@]3(O)[C@H]1C5 [(α,α)-NAL24, double-end substituted tetraethylene glycol-naloxone]	7.16
COC(=O)/C=C/C(=O)N[C@@H]1CC[C@@]2(O)[C@H]3Cc4ccc(O)c5c4[C@@]2(CCN3CC2CC2)[C@H]1O5 [Beta-FNA]	2.62

Source: patent US8962647B1, “Conjugate of polyethylene gylcol and naloxone and pharmaceutical composition and use thereof” (Jenkem Technology Co., Ltd. (Tianjin), priority 2012, dated 2015)
